From patent US20070155823A1, “USE OF BENZO-FUSED HETEROCYCLE SULFAMIDE DERIVATIVES AS NEUROPROTECTIVE AGENTS” (priority 2005, published 2007)
Values joined by “and” are separate entries in the source; they are usually repeats but may differ in a detail not shown here. Identical values can stand only once.

How the values were obtained:
Rat Hippocampal Cultures = assay: Cell Titer Glow/Cell Viability in vitro assay, rat hippocampal cultures, insult with 150 μM H2O2; format: cell-based; conditions: for Cell viability (Cell Titer Glow), single plate / Cell viability (Cell Titer Glow), Mean: rat hippocampal cultures, 150 μM H2O2 insult; for Cell viability (Cell Titer Glow), single plate: individual plates (each in triplicate), vehicle 0.5-0.6; for Cell viability (Cell Titer Glow), Mean: mean of 3 plates (n=9), vehicle mean 0.5
Experimental: (§1) Cell Titer Glow/Cell Viability In Vitro Assay
(§2) The assay was run according to the procedure listed within the insert of the kit purchased from Promega (see attachment at the end of the application).
(§3) Cell Cultures were prepared as follows. Dissociated hippocampal and cortical cell cultures were established from embryonic day 18 rat fetuses. The fetuses were removed via cesarean section from pregnant dams (Harlan Sprague-Dawley) anesthetized with halothane according to the AVMA Panel on Euthanasia. Pups were decapitated and the brains were removed and placed in Hank's Balanced Salt solution (1×HBSS; Gibco, Rockville, Md.). The hippocampi and cortices were dissected out and pooled according to tissue-type. Tissue was trypsinized for 15 min (1 mg/ml trypsin-HBSS; Worthington, Lakewood, N.J.), rinsed with fresh HBSS, incubated in trypsin inhibitor (1 mg/ml; Sigma, St. Louis, Mo.) for 5 min, rinsed again with fresh HBSS and then triturated in 1 ml fresh HBSS with a fire-polished glass pipette. Dissociated cells were seeded at 10,000 cells/well onto poly-D-lysine coated 96-well plates (BD BioScience, Bedford, Ma.) containing 100 ul/well Eagle's Minimal Essential Media (MEM; Gibco) supplemented with 26 mM NaHCO3 (Sigma), 40 mM glucose (Sigma), 20 mM KCl (Sigma), 1 mM sodium pyruvate (Sigma), 10% (v/v) heat-inactivated fetal bovine serum (Hyclone, Logan, Utah), and 0.001% gentamicin sulfate (Sigma) (pH 7.4). Serum-free cultures were plated and maintained in Neurobasal medium+B27 supplement (Gibco). Cells were allowed to attach for 24 h in a humidified 37° C. 5% CO2 incubator before experimental treatment.
(§4) Test compounds were prepared as follows: A 10 mM stock in DMSO of each compound was diluted 1:50 in DPBS rendering a final stock of 200 μM. […] Equal amounts of vehicle or diluted compound were added to each culture well.
(§5) A 30% stock solution of hydrogen peroxide (H2O2; Sigma) was diluted with DPBS 1:100 to yield a […] stock. Five microliters of vehicle or H2O2 stock solution was added to each 100 ul culture well to yield a final concentration of 150 uM.
(§6) Note that in the data listed below, each plate was run in triplicate for a total of n=9.

[1] = system: Rat Cerebral Cortical Cultures; assay: Cell Titer Glow/Cell Viability in vitro assay, rat cerebral cortical cultures, insult with 150 μM H2O2; format: cell-based; conditions: 150 μM H2O2 insult; for Cell viability (Cell Titer Glow), single plate: individual plates (each in triplicate), vehicle 0.8-1.2; for Cell viability (Cell Titer Glow), Mean: mean of 3 plates (n=9)
Experimental: as §1, §2, §3, §4, §5, §6

| Structure (SMILES) | melting point [°C] | Cell viability (Cell Titer Glow), single plate (Rat Hippocampal Cultures; compound 0.1 μM) | Cell viability (Cell Titer Glow), Mean (Rat Hippocampal Cultures; compound 0.1 μM, SD 1, **p < 0.01) | Cell viability (Cell Titer Glow), single plate (Rat Hippocampal Cultures; compound 1 μM) | Cell viability (Cell Titer Glow), Mean (Rat Hippocampal Cultures; compound 1 μM, SD 0.6) | Cell viability (Cell Titer Glow), single plate (Rat Hippocampal Cultures; compound 10 μM) | Cell viability (Cell Titer Glow), Mean (Rat Hippocampal Cultures; compound 10 μM, SD 3) | Protection of neurons from death and/or damage from oxidative stress or oxidative injury (Rat Hippocampal Cultures; summary in words of Tables 4 and 5 (rat hippocampal and cerebral cortical cultures, 150 μM H2O2)) | Cell viability (Cell Titer Glow), single plate ([1]; compound 0.1 μM) | Cell viability (Cell Titer Glow), Mean ([1]; compound 0.1 μM, SD 35, vehicle mean 1, *p < 0.05) | Cell viability (Cell Titer Glow), single plate ([1]; compound 1 μM) | Cell viability (Cell Titer Glow), Mean ([1]; compound 1 μM, SD 16, vehicle mean 1) | Cell viability (Cell Titer Glow), single plate ([1]; compound 10 μM) | Cell viability (Cell Titer Glow), Mean ([1]; compound 10 μM, SD 22, vehicle mean 1) |
| --- | --- | --- | --- | --- | --- | --- | --- | --- | --- | --- | --- | --- | --- | --- |
| NS(=O)(=O)NCC1CCc2ccccc2O1 (centres unmarked) [Compound #10, Chroman-2-ylmethylsulfamide] | 100 to 101 | – | – | – | – | – | – | – | – | – | – | – | – | – |
| NS(=O)(=O)NC[C@H]1COc2cc(Cl)ccc2O1 [Compound #8, (2S)-(−)-N-(6-Chloro-2,3-dihydro-benzo[1,4]dioxin-2-ylmethyl)-sulfamide] | – | 24 (2×) and 26 | 25** | 16 and 17 (2×) | 17 | 10 and 14 and 15 | 13 | effective at protecting neurons from death and/or damage from oxidative stress or oxidative injury | 28 and 64 and 97 | 63* | 19 and 51 and 38 | 36 | 10 and 18 and 51 | 26 |
